Values joined by “and” are separate entries in the source; they are usually repeats but may differ in a detail not shown here. Equal values may be shown once. Toxic doses and inconclusive results are not listed.
System: CD2F1 mice, L1210 leukemia ip, survival T/C
Assay: NCI In Vivo Anticancer Drug Screen. Data for tumor model L1210 Leukemia (intraperitoneal) in CD2F1 (CDF1) mice
Settings: higher = longer survival
Method in brief: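 Ratio T/C, where T is the treated-group value and C the vehicle-dosed control value, from mice implanted with a transplantable tumor.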

[1] = endpoint: mean survival time, dose: 100.0 mg/kg/injection, schedule: Q01DX009 (ip), vehicle: saline with Tween-80
[2] = endpoint: mean survival time, dose: 200.0 mg/kg/injection, schedule: Q01DX009 (ip), vehicle: saline with Tween-80
[3] = endpoint: mean survival time, dose: 50.0 mg/kg/injection, schedule: Q01DX009 (ip), vehicle: saline with Tween-80
[4] = endpoint: mean survival time, dose: 100.0 mg/kg/injection, schedule: Q04DX003 (ip), vehicle: saline with Tween-80

CCOc1cccc(Cc2cn(Cc3ccc(NC(=O)c4cccc(S(=O)(=O)F)c4)cc3)c(=O)[nH]c2=O)c1
T/C (endpoint: mean survival time, dose: 75.0 mg/kg/injection, schedule: Q01DX001 (ip), vehicle: saline with Tween-80): 94 % of control | T/C (endpoint: mean survival time, dose: 150.0 mg/kg/injection, schedule: Q01DX001 (ip), vehicle: saline with Tween-80): 89 % of control | T/C (endpoint: mean survival time, dose: 300.0 mg/kg/injection, schedule: Q01DX001 (ip), vehicle: saline with Tween-80): 94 % of control

O=C(O)CC1CCCCCCCCCCC1=O (stereo not drawn)
T/C (endpoint: mean survival time, dose: 100.0 mg/kg/injection, schedule: Q04DX002 (ip), vehicle: saline with Tween-80): 98 % of control | T/C (endpoint: mean survival time, dose: 200.0 mg/kg/injection, schedule: Q04DX002 (ip), vehicle: saline with Tween-80): 91 % of control | T/C (endpoint: mean survival time, dose: 400.0 mg/kg/injection, schedule: Q04DX002 (ip), vehicle: saline with Tween-80): 98 % of control

CCN(CC)C(=O)N1CCN(c2ccccc2)CC1
T/C (endpoint: mean survival time, dose: 100.0 mg/kg/injection, schedule: Q04DX003 (ip), vehicle: saline): 98 % of control | T/C (endpoint: mean survival time, dose: 200.0 mg/kg/injection, schedule: Q04DX003 (ip), vehicle: saline): 93 % of control

Cc1ccc(S(=O)(=O)OC2C3OCC(O3)C3OC(C)OC32)cc1 (stereo not drawn)
T/C [1]: 92 % of control | T/C [2]: 95 % of control | T/C (endpoint: mean survival time, dose: 400.0 mg/kg/injection, schedule: Q01DX009 (ip), vehicle: saline with Tween-80): 95 % of control

COCCNC(=S)SCCN(C(C)C)C(C)C
T/C (endpoint: mean survival time, dose: 100.0 mg/kg/injection, schedule: Q01DX001 (sc), vehicle: olive oil, sesame oil, peanut oil): 110 % of control

CCCCOC(=O)CC(O)C(=O)OCCCC (stereo not drawn)
T/C [3]: 113 % of control | T/C [1]: 107 % of control | T/C [2]: 103 % of control

COC(=O)C1OC(Sc2ncnc3nc[nH]c23)C(O)C(O)C1O (stereo not drawn)
T/C (endpoint: median survival time, dose: 25.0 mg/kg/injection, schedule: Q01DX005 (ip), vehicle: water): 98 % of control | T/C (endpoint: median survival time, dose: 50.0 mg/kg/injection, schedule: Q01DX005 (ip), vehicle: water): 109 % of control | T/C (endpoint: median survival time, dose: 100.0 mg/kg/injection, schedule: Q01DX005 (ip), vehicle: water): 109 % of control | T/C (endpoint: median survival time, dose: 200.0 mg/kg/injection, schedule: Q01DX005 (ip), vehicle: water): 113 % of control and 118 % of control | T/C (endpoint: median survival time, dose: 400.0 mg/kg/injection, schedule: Q01DX005 (ip), vehicle: water): 119 % of control

ClCCN(CC#CCCCC#CCN(CCCl)CCCl)CCCl
T/C (endpoint: mean survival time, dose: 3.12 mg/kg/injection, schedule: Q01DX009 (ip), vehicle: saline): 121 % of control | T/C (endpoint: mean survival time, dose: 6.25 mg/kg/injection, schedule: Q01DX009 (ip), vehicle: saline): 119 % of control and 121 % of control | T/C (endpoint: mean survival time, dose: 25.0 mg/kg/injection, schedule: Q01DX009 (ip), vehicle: saline): 162 % of control | T/C (endpoint: mean survival time, dose: 50.0 mg/kg/injection, schedule: Q01DX009 (ip), vehicle: saline): 89 % of control and 104 % of control

COc1ccc(/C=C/C(=O)O)cc1
T/C (endpoint: mean survival time, dose: 100.0 mg/kg/injection, schedule: Q01DX001 (ip), vehicle: saline with Tween-80): 102 % of control | T/C (endpoint: mean survival time, dose: 200.0 mg/kg/injection, schedule: Q01DX001 (ip), vehicle: saline with Tween-80): 96 % of control | T/C (endpoint: mean survival time, dose: 400.0 mg/kg/injection, schedule: Q01DX001 (ip), vehicle: saline with Tween-80): 97 % of control

COC(=O)c1ccccc1C=C(c1ccc([N+](=O)[O-])cc1)c1ccc([N+](=O)[O-])cc1
T/C [1]: 93 % of control | T/C [4]: 94 % of control | T/C [2]: 93 % of control | T/C (endpoint: mean survival time, dose: 200.0 mg/kg/injection, schedule: Q04DX003 (ip), vehicle: saline with Tween-80): 96 % of control | T/C (endpoint: mean survival time, dose: 400.0 mg/kg/injection, schedule: Q04DX003 (ip), vehicle: saline with Tween-80): 88 % of control

Cc1cccc(/C(=C\c2ccc([N+](=O)[O-])cc2)C(=O)Nc2ccc(S(=O)(=O)F)c(C)c2)c1
T/C (endpoint: mean survival time, dose: 50.0 mg/kg/injection, schedule: Q01DX009 (ip), vehicle: Klucel (hydroxypropylcellulose) (HPC)): 91 % of control | T/C (endpoint: mean survival time, dose: 100.0 mg/kg/injection, schedule: Q01DX009 (ip), vehicle: Klucel (hydroxypropylcellulose) (HPC)): 94 % of control | T/C (endpoint: mean survival time, dose: 200.0 mg/kg/injection, schedule: Q01DX009 (ip), vehicle: Klucel (hydroxypropylcellulose) (HPC)): 112 % of control

CCC1(O)C(=O)OCc2c1cc1n(c2=O)Cc2cc3ccc(N(C)C)cc3nc2-1 (stereo not drawn)
T/C (endpoint: median survival time, dose: 10.0 mg/kg/injection, schedule: Q04DX002 (ip), vehicle: saline with Tween-80): 103 % of control | T/C (endpoint: median survival time, dose: 20.0 mg/kg/injection, schedule: Q04DX002 (ip), vehicle: saline with Tween-80): 106 % of control | T/C (endpoint: median survival time, dose: 40.0 mg/kg/injection, schedule: Q04DX002 (ip), vehicle: saline with Tween-80): 106 % of control | T/C (endpoint: median survival time, dose: 80.0 mg/kg/injection, schedule: Q04DX002 (ip), vehicle: saline with Tween-80): 112 % of control

CCCCCCCCOC(=O)c1cc([N+](=O)[O-])c(Cl)c([N+](=O)[O-])c1
T/C (endpoint: mean survival time, dose: 25.0 mg/kg/injection, schedule: Q01DX009 (ip), vehicle: saline with Tween-80): 106 % of control | T/C (endpoint: mean survival time, dose: 25.0 mg/kg/injection, schedule: Q04DX003 (ip), vehicle: saline with Tween-80): 103 % of control | T/C [3]: 101 % of control | T/C (endpoint: mean survival time, dose: 50.0 mg/kg/injection, schedule: Q04DX003 (ip), vehicle: saline with Tween-80): 109 % of control | T/C [1]: 87 % of control | T/C [4]: 91 % of control and 98 % of control

C=CCSc1ncnc2c1c(Br)cn2C1OC(CO)C(O)C1O (stereo not drawn)
T/C (endpoint: mean survival time, dose: 75.0 mg/kg/injection, schedule: Q01DX001 (ip), vehicle: saline): 101 % of control | T/C (endpoint: mean survival time, dose: 150.0 mg/kg/injection, schedule: Q01DX001 (ip), vehicle: saline): 107 % of control | T/C (endpoint: mean survival time, dose: 300.0 mg/kg/injection, schedule: Q01DX001 (ip), vehicle: saline): 106 % of control

From PubChem BioAssay AID256 (DTP/NCI, 2004)
